According to US20080207624A1, “Therapeutic Agent for Bh4-Responsive Hyperphenylalaninemia” (priority 2004, published 2008):
Where a name gives a salt, the structure may show the parent alone.

Columns and labels:
[1] = Example 2: stability of sapropterin hydrochloride mixed 1:5 with sweeteners, uncapped vial 40° C., 75% RH; type: physicochemical; details: 8 weeks
Method: Sapropterin hydrochloride was mixed at a 1:5 ratio with each of the three sweeteners described above. 2 g of the mixture was placed in a glass vial and the vial was left uncapped at 40° C., 75% RH, to evaluate the stability of the preparation and sapropterin hydrochloride. […] The preparations using sucrose and fructose even underwent deliquescence. The remaining sapropterin hydrochloride was quantified by liquid chromatography that can differentiate sapropterin hydrochloride from its analogues. The area of the peak for sapropterin hydrochloride was determined and was used to calculate the remaining sapropterin hydrochloride (The same procedure was followed in other examples).

[2] = Example 7: stability of sapropterin hydrochloride blended 200:1 with coloring agents; type: physicochemical
Method: Sapropterin hydrochloride was mixed at a 200:1 ratio with different coloring agents. 0.2 g of each mixture was placed in a glass vial, which was then sealed with a metal cap and was stored at 40° C. and 75% RH for 4 weeks. Subsequently, the mixtures were evaluated for stability (i.e., change in appearance, amount of remaining active ingredient).

For C[C@H](O)[C@H](O)[C@H]1CNc2nc(N)[nH]c(=O)c2N1 [None, sapropterin hydrochloride], the “% amount of remaining sapropterin hydrochloride after storage” value [1] was 98.7%, the Appearance after storage [1] was “Yellowish white” and the “% amount remained” value ([2]; After 4-week storage (40° C./75% RH), sealed vial) was 99.6%. For the same molecule, the Initial appearance ([2]; before storage) was “White”.
